Source: article PMC13336041, “Streptavidins Coordinate Biotin Sequestration and Self‐Resistance Within a Biotin‐Pathway Antibiotic Network” (Advanced Science, 2026)

Columns and labels:
BioA (EcBioA) = BioA (EcBioA) (Escherichia coli, UniProt P12995); experiment: BioA-BioD coupled enzyme assay with KAPA as substrate, LC-MS readout of desthiobiotin (IC50 […]); assay type: biochemical
[1] = target: BioA derived from S. lydicus (SlBioA); experiment: BioA-BioD coupled enzyme assay with KAPA as substrate, LC-MS readout; assay type: biochemical, Streptomyces lydicus
[2] = target: streptavidin 2 (Sav2), residues 45-169 (S. avidinii); experiment: not stated; in solution; method not given

Chain of BioA (EcBioA) (P12995 whole entry): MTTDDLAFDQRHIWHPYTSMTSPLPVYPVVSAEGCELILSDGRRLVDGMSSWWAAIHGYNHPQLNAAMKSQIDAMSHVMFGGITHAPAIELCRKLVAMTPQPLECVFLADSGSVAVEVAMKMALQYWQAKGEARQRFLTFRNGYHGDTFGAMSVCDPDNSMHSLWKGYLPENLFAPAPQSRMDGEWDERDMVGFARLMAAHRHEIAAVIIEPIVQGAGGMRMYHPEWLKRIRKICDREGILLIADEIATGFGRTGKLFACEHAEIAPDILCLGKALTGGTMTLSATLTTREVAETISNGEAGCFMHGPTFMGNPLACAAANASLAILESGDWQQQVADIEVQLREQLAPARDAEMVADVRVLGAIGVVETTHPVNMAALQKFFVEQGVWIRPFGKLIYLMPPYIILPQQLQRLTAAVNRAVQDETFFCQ

| stoichiometry N [2] | Molecule | Ki (BioA (EcBioA)) [µM] | IC50 [1] [µM] |
| --- | --- | --- | --- |
|  | C[C@H](N)C(=O)CCCC[C@@H](C)C(=O)O [compound 5, α-methyl-KAPA] | 14.9 | 6.5 |
| 4 | streptavidin 2 (Sav2), residues 45-169 (domain or fragment) |  |  |
